Reference: PMC10746543, “Design principles for cyclin K molecular glue degraders” (Nature Chemical Biology, 2023)
“And” between values parts separate entries of the source, which are not always exact repeats. Equal entries are not always repeated. Where two headings read alike, the source gives them in different places. One block for each compound: values may come before it.

Tests used:
[1] = test system: cyclin K–eGFP degradation reporter; assay: Cyclin K reporter stability analysis (dual-color cyclin K–eGFP reporter); assay type: cell-based, human; details: source data sheet correlations; read-out: DC50
Outline: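 Cells (HEK293T–Cas9, reporter-expressing) at 1 × 10^6 ml^−1; 5 h compound or DMSO; flow cytometry; gMFI eGFP ÷ mCherry on round mCherry-positive events; normalized to 3 DMSO controls.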

[2] = test system: HEK293T cells; assay: Drug sensitivity assay (CellTiter-Glo viability) with or without MLN4924 pretreatment; assay type: cell-based, human; details: Supplementary Table 2; for EC50: Homo sapiens, HEK-293T, HEK293T viability, 72 h, compound alone, read-out: Cellular assays EC50; for Toxicity rescue: MLN4924-mediated cytotoxicity rescue, 10 µM used where n.d.
Outline: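 Cas9-expressing HEK293T cells receive either vehicle or 100 nM MLN4924, then compounds 2 h afterwards. After three days, luminescence-based viability is measured and calculated relative to DMSO.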

[3] = molecular target: CDK12–cyclin K (Homo sapiens, UniProt Q9NYV4); assay: Lanthascreen kinase binding assay, CDK12; details: for Lanthascreen raw signal, sheet CDK12: duplicates
CDK12–cyclin K, sequence (Q9NYV4 713-1052): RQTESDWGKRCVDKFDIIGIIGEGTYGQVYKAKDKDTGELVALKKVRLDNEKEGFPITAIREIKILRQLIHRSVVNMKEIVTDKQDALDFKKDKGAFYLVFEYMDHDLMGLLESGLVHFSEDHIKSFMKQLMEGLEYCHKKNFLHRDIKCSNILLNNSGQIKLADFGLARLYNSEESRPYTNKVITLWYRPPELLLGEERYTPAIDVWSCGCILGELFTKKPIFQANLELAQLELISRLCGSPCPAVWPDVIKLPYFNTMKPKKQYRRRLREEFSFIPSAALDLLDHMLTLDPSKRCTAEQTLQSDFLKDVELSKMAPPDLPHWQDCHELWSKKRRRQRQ
CDK12–cyclin K, sequence (O75909 1-267 partner limits assumed): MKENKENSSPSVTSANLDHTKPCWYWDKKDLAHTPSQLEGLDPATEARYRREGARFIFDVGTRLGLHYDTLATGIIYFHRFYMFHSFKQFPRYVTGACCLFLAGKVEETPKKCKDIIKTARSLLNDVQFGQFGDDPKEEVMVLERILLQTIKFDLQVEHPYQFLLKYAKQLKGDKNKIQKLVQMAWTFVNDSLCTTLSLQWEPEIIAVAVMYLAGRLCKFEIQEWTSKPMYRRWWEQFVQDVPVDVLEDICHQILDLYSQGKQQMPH
Method: (§1) Lanthascreen experiments were performed using commercially available reagents (Thermo Fisher) and according to the manufacturer’s instructions.

[4] = molecular target: T1, CDK9–cyclin T (Homo sapiens, UniProt P50750); assay: Lanthascreen kinase binding assay, CDK9; details: for Lanthascreen TR-FRET signal (raw ratio), sheet CDK9: duplicates
T1 construct: purchased Thermo Fisher
T1 sequence (P50750 whole entry): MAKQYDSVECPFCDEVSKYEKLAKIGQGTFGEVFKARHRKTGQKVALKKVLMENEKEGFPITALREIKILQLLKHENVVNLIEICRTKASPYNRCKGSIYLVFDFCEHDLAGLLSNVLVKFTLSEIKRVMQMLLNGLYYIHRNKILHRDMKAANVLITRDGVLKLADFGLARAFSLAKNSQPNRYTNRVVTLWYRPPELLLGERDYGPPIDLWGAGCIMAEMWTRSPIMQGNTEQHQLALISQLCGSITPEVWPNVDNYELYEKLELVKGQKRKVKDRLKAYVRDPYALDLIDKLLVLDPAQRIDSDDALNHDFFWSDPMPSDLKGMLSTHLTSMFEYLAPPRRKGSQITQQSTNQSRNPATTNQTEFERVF
T1 sequence (O60563 whole entry partner): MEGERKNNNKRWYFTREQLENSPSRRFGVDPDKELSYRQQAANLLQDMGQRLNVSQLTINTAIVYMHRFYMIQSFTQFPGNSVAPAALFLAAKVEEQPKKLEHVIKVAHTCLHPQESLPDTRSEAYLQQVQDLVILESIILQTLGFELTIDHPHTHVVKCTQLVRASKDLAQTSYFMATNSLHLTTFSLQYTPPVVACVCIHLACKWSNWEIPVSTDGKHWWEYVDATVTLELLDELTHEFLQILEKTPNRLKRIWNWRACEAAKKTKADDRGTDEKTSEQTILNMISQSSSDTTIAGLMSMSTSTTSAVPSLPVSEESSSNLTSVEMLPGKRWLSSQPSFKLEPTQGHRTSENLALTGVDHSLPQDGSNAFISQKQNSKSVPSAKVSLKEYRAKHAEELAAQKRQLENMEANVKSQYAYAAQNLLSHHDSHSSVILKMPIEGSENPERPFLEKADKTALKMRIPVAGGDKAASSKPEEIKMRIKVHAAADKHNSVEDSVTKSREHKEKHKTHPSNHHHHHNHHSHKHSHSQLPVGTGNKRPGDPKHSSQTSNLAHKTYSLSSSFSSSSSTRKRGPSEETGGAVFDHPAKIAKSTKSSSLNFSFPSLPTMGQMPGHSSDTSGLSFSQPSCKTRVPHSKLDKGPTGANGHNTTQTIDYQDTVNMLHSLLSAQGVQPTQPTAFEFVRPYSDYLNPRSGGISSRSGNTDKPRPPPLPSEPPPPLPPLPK
Method: as §1

[5] = molecular target: T2, CDK2–cyclin A (Homo sapiens, UniProt P24941); assay: Lanthascreen kinase binding assay, CDK2
T2 construct: purchased Thermo Fisher
Method: as §1

[6] = Supplementary Table 2, read-out: Lanthascreen IC50 [nM] CDK12
[7] = Supplementary Table 2, read-out: Lanthascreen IC50 [nM] CDK9
[8] = compound 1.02544 nM, first titration set (r1)
[9] = compound 3.15521 nM, first titration set (r1)
[10] = compound 9.46563 nM, first titration set (r1)
[11] = compound 31.5521 nM, first titration set (r1)
[12] = compound 99.3891 nM, first titration set (r1)
[13] = compound 315.521 nM, first titration set (r1)
[14] = compound 3155.21 nM, first titration set (r1)
[15] = compound 10002 nM, first titration set (r1)
[16] = Compound 1.02544 nM, raw replicates, experiment r1-r11
[17] = Compound 3.15521 nM, raw replicates, experiment r1-r11
[18] = Compound 9.46563 nM, raw replicates, experiment r1-r11
[19] = Compound 31.5521 nM, raw replicates, experiment r1-r11
[20] = Compound 99.3891 nM, raw replicates, experiment r1-r11
[21] = Compound 315.521 nM, raw replicates, experiment r1-r11
[22] = Compound 3155.21 nM, raw replicates, experiment r1-r11
[23] = Compound 10002 nM, raw replicates, experiment r1-r11
[24] = Supplementary Table 2, read-out: Lanthascreen IC50 [nM] CDK2

DC50 [1]: 493 nM
IC50 ([3]; Lanthascreen, read-out: CDK12 inhibition): > 10000 nM
IC50 [3, 6]: > 10000 nM
Lanthascreen raw signal, sheet CDK12 ([3]; compound 0.038147 nM, series r13): 0.01223 and 0.01089
Lanthascreen raw signal, sheet CDK12 ([3]; compound 0.152588 nM, series r13): 0.01192 and 0.01181
Lanthascreen raw signal, sheet CDK12 ([3]; compound 0.610352 nM, series r13): 0.01147 and 0.01206
Lanthascreen raw signal, sheet CDK12 ([3]; compound 1.02544 nM, series r1): 0.009388 and 0.008109
Lanthascreen raw signal, sheet CDK12 ([3]; compound 3.15521 nM, series r1): 0.008061 and 0.009006
Lanthascreen raw signal, sheet CDK12 ([3]; compound 9.46563 nM, series r1): 0.008944 and 0.009513
Lanthascreen raw signal, sheet CDK12 ([3]; compound 9.76563 nM, series r13): 0.01062 and 0.01153
Lanthascreen raw signal, sheet CDK12 ([3]; compound 31.5521 nM, series r1): 0.009567 and 0.009846
Lanthascreen raw signal, sheet CDK12 ([3]; compound 39.0625 nM, series r13): 0.01003 and 0.0116
Lanthascreen raw signal, sheet CDK12 ([3]; compound 99.3891 nM, series r1): 0.009103 and 0.01044
Lanthascreen raw signal, sheet CDK12 ([3]; compound 156.25 nM, series r13): 0.0115 and 0.0116
Lanthascreen raw signal, sheet CDK12 ([3]; compound 315.521 nM, series r1): 0.007883 and 0.008557
Lanthascreen raw signal, sheet CDK12 ([3]; compound 625 nM, series r13): 0.01055 and 0.01154
Lanthascreen raw signal, sheet CDK12 ([3]; compound 2500 nM, series r13): 0.01098 and 0.01126
Lanthascreen raw signal, sheet CDK12 ([3]; compound 3155.21 nM, series r1): 0.006491 and 0.00695
Lanthascreen raw signal, sheet CDK12 ([3]; compound 10000 nM, series r13): 0.01006 and 0.01041
Lanthascreen raw signal, sheet CDK12 ([3]; compound 10002 nM, series r1): 0.00959 and 0.009612
IC50 ([4]; Lanthascreen, read-out: CDK9 inhibition): > 10000 nM
IC50 [4, 7]: > 10000 nM
Lanthascreen TR-FRET signal (raw ratio), sheet CDK9 ([4]; compound 0.038147 nM, second titration set (r13)): 0.01409 and 0.01416
Lanthascreen TR-FRET signal (raw ratio), sheet CDK9 ([4]; compound 0.152588 nM, second titration set (r13)): 0.01468 and 0.01413
Lanthascreen TR-FRET signal (raw ratio), sheet CDK9 ([4]; compound 0.610352 nM, second titration set (r13)): 0.01464 and 0.01471
Lanthascreen TR-FRET signal (raw ratio), sheet CDK9 [4, 8]: 0.013 and 0.01376
Lanthascreen TR-FRET signal (raw ratio), sheet CDK9 [4, 9]: 0.01501 and 0.01445
Lanthascreen TR-FRET signal (raw ratio), sheet CDK9 [4, 10]: 0.01436 and 0.01453
Lanthascreen TR-FRET signal (raw ratio), sheet CDK9 ([4]; compound 9.76563 nM, second titration set (r13)): 0.01408 and 0.01448
Lanthascreen TR-FRET signal (raw ratio), sheet CDK9 [4, 11]: 0.01309 and 0.01275
Lanthascreen TR-FRET signal (raw ratio), sheet CDK9 ([4]; compound 39.0625 nM, second titration set (r13)): 0.01393 and 0.01389
Lanthascreen TR-FRET signal (raw ratio), sheet CDK9 [4, 12]: 0.01397 and 0.01502
Lanthascreen TR-FRET signal (raw ratio), sheet CDK9 ([4]; compound 156.25 nM, second titration set (r13)): 0.01402 and 0.0137
Lanthascreen TR-FRET signal (raw ratio), sheet CDK9 [4, 13]: 0.01247 and 0.01162
Lanthascreen TR-FRET signal (raw ratio), sheet CDK9 ([4]; compound 625 nM, second titration set (r13)): 0.01303 and 0.01336
Lanthascreen TR-FRET signal (raw ratio), sheet CDK9 ([4]; compound 2500 nM, second titration set (r13)): 0.01244 and 0.01203
Lanthascreen TR-FRET signal (raw ratio), sheet CDK9 [4, 14]: 0.007103 and 0.007563
Lanthascreen TR-FRET signal (raw ratio), sheet CDK9 ([4]; compound 10000 nM, second titration set (r13)): 0.01094 and 0.01086
Lanthascreen TR-FRET signal (raw ratio), sheet CDK9 [4, 15]: 0.01268 and 0.01049
Lanthascreen signal, sheet CDK2 ([5]; Compound 0.038147 nM, raw replicates, experiment r13-r23): 0.01269 and 0.01279
Lanthascreen signal, sheet CDK2 ([5]; Compound 0.152588 nM, raw replicates, experiment r13-r23): 0.01374 and 0.01273
Lanthascreen signal, sheet CDK2 ([5]; Compound 0.610352 nM, raw replicates, experiment r13-r23): 0.01372 and 0.01331
Lanthascreen signal, sheet CDK2 [5, 16]: 0.009631 and 0.01041
Lanthascreen signal, sheet CDK2 [5, 17]: 0.01056 and 0.008974
Lanthascreen signal, sheet CDK2 [5, 18]: 0.009472 and 0.0097
Lanthascreen signal, sheet CDK2 ([5]; Compound 9.76563 nM, raw replicates, experiment r13-r23): 0.01395 and 0.01369
Lanthascreen signal, sheet CDK2 [5, 19]: 0.0114 and 0.01012
Lanthascreen signal, sheet CDK2 ([5]; Compound 39.0625 nM, raw replicates, experiment r13-r23): 0.01257 and 0.0126
Lanthascreen signal, sheet CDK2 [5, 20]: 0.01033 and 0.009406
Lanthascreen signal, sheet CDK2 ([5]; Compound 156.25 nM, raw replicates, experiment r13-r23): 0.01318 and 0.01113
Lanthascreen signal, sheet CDK2 [5, 21]: 0.009414 and 0.009861
Lanthascreen signal, sheet CDK2 ([5]; Compound 625 nM, raw replicates, experiment r13-r23): 0.01295 and 0.0131
Lanthascreen signal, sheet CDK2 ([5]; Compound 2500 nM, raw replicates, experiment r13-r23): 0.01303 and 0.01312
Lanthascreen signal, sheet CDK2 [5, 22]: 0.008384 and 0.008441
Lanthascreen signal, sheet CDK2 ([5]; Compound 10000 nM, raw replicates, experiment r13-r23): 0.01252 and 0.01202
Lanthascreen signal, sheet CDK2 [5, 23]: 0.01042 and 0.01107
IC50 ([5]; Lanthascreen, read-out: CDK2 inhibition): > 10000 nM
IC50 [5, 24]: > 10000 nM
SMILES: Cc1cccc(Nc2nc(CC(=O)Nc3ncc(C)s3)cs2)n1 [HQ461]
EC50 [2]: 1300 nM
Toxicity rescue [2]: 159%

DC50 [1]: 1 nM
IC50 [3, 6]: 25 nM
Lanthascreen raw signal, sheet CDK12 ([3]; compound 1.02544 nM, series r1): 0.01046 and 0.009798
Lanthascreen raw signal, sheet CDK12 ([3]; compound 3.15521 nM, series r1): 0.009054 and 0.008698
Lanthascreen raw signal, sheet CDK12 ([3]; compound 9.46563 nM, series r1): 0.00642 and 0.008208
Lanthascreen raw signal, sheet CDK12 ([3]; compound 31.5521 nM, series r1): 0.007402 and 0.006928
Lanthascreen raw signal, sheet CDK12 ([3]; compound 99.3891 nM, series r1): 0.007817 and 0.006924
Lanthascreen raw signal, sheet CDK12 ([3]; compound 315.521 nM, series r1): 0.006025 and 0.005353
Lanthascreen raw signal, sheet CDK12 ([3]; compound 3155.21 nM, series r1): 0.005515 and 0.005262
Lanthascreen raw signal, sheet CDK12 ([3]; compound 10002 nM, series r1): 0.006527 and 0.0053
IC50 [4, 7]: 557 nM
Lanthascreen TR-FRET signal (raw ratio), sheet CDK9 [4, 8]: 0.01409 and 0.01452
Lanthascreen TR-FRET signal (raw ratio), sheet CDK9 [4, 9]: 0.01533 and 0.01444
Lanthascreen TR-FRET signal (raw ratio), sheet CDK9 [4, 10]: 0.01086 and 0.01492
Lanthascreen TR-FRET signal (raw ratio), sheet CDK9 [4, 11]: 0.01278 and 0.01412
Lanthascreen TR-FRET signal (raw ratio), sheet CDK9 [4, 12]: 0.01498 and 0.0129
Lanthascreen TR-FRET signal (raw ratio), sheet CDK9 [4, 13]: 0.01059 and 0.008471
Lanthascreen TR-FRET signal (raw ratio), sheet CDK9 [4, 14]: 0.004926 and 0.00557
Lanthascreen TR-FRET signal (raw ratio), sheet CDK9 [4, 15]: 0.002868 and 0.004276
Lanthascreen signal, sheet CDK2 [5, 16]: 0.01165 and 0.01109
Lanthascreen signal, sheet CDK2 [5, 17]: 0.008478 and 0.00993
Lanthascreen signal, sheet CDK2 ([5]; Compound 4.57247 nM, experiment r25-r34): 0.01637
Lanthascreen signal, sheet CDK2 [5, 18]: 0.009994 and 0.009998
Lanthascreen signal, sheet CDK2 ([5]; Compound 13.7174 nM, experiment r25-r34): 0.01615
Lanthascreen signal, sheet CDK2 [5, 19]: 0.01039 and 0.01091
Lanthascreen signal, sheet CDK2 ([5]; Compound 41.1523 nM, experiment r25-r34): 0.01569
Lanthascreen signal, sheet CDK2 [5, 20]: 0.0115 and 0.01029
Lanthascreen signal, sheet CDK2 ([5]; Compound 123.457 nM, experiment r25-r34): 0.01519
Lanthascreen signal, sheet CDK2 [5, 21]: 0.008046 and 0.01008
Lanthascreen signal, sheet CDK2 ([5]; Compound 370.37 nM, experiment r25-r34): 0.01387
Lanthascreen signal, sheet CDK2 [5, 22]: 0.007483 and 0.007205
Lanthascreen signal, sheet CDK2 ([5]; Compound 3333.33 nM, experiment r25-r34): 0.009102
Lanthascreen signal, sheet CDK2 ([5]; Compound 10000 nM, experiment r25-r34): 0.006383
Lanthascreen signal, sheet CDK2 [5, 23]: 0.003415 and 0.004039
IC50 [5, 24]: 6120 nM
SMILES: Cc1cc2nc(CNc3nc(N4CCN(C)CC4)nc4c(Br)cnn34)[nH]c2cc1C [DS73, reference compound]
EC50 [2]: 2 nM
Toxicity rescue [2]: 850%
